# Experiments:
# Assay in all cases: relative viability (nuclei count vs DMSO), 5 days (fraction); higher = more cells survive
# XMD8-85 + Alpelisib = compound: CN1CCN(CC1)C2=CC(=C(C=C2)NC3=NC=C4C(=N3)N(C5=CC=CC=C5C(=O)N4C)C)OC [XMD8-85] + Cc1nc(NC(=O)N2CCC[C@H]2C(N)=O)sc1-c1ccnc(C(C)(C)C(F)(F)F)c1 [Alpelisib] (partner 2 µM)
# Method in brief: (§1)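 A single step with final 0.05% Triton X-100, 1% formaldehyde and 1 ug/ml Hoechst fixed the cells and stained nuclei 5 days after treatment. Lung cancer cell lines in 1536-well plates had been treated by pin tool the day after seeding with one drug alone or a fixed anchor-drug dose plus five library-drug doses (not always all listed) in √10 steps, and nuclei were counted on 4× images. Relative viability is the ratio of nuclei in treated wells to nuclei in vehicle wells, taken as the median of duplicate plates.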
# 4EGI-1 + Palbociclib = compound: O=C(O)C(Cc1ccccc1[N+](=O)[O-])=NNc1nc(-c2ccc(Cl)c(Cl)c2)cs1 (mixture of isomers) [4EGI-1] + CC(=O)c1c(C)c2cnc(Nc3ccc(N4CCNCC4)cn3)nc2n(C2CCCC2)c1=O [Palbociclib] (partner 0.5 µM)
# Method in brief: as §1
# 4EGI-1 + Bortezomib = compound: O=C(O)C(Cc1ccccc1[N+](=O)[O-])=NNc1nc(-c2ccc(Cl)c(Cl)c2)cs1 (mixture of isomers) [4EGI-1] + CC(C)C[C@H](NC(=O)[C@H](Cc1ccccc1)NC(=O)c1cnccn1)B(O)O [Bortezomib] (partner 0.002 µM)
# Method in brief: as §1
# 4EGI-1 + AZD7762 = compound: O=C(O)C(Cc1ccccc1[N+](=O)[O-])=NNc1nc(-c2ccc(Cl)c(Cl)c2)cs1 (mixture of isomers) [4EGI-1] + NC(=O)Nc1cc(-c2cccc(F)c2)sc1C(=O)N[C@H]1CCCNC1 [AZD7762] (partner 0.2 µM)
# Method in brief: as §1
Cell Line,relative viability (XMD8-85 + Alpelisib; first compound 0.08 µM),relative viability (XMD8-85 + Alpelisib; first compound 0.253 µM),relative viability (XMD8-85 + Alpelisib; first compound 0.8 µM),relative viability (XMD8-85 + Alpelisib; first compound 2.53 µM),relative viability (XMD8-85 + Alpelisib; first compound 8 µM),relative viability (4EGI-1 + Palbociclib; first compound 0.5 µM),relative viability (4EGI-1 + Palbociclib; first compound 1.581 µM),relative viability (4EGI-1 + Palbociclib; first compound 5 µM),relative viability (4EGI-1 + Palbociclib; first compound 15.81 µM),relative viability (4EGI-1 + Palbociclib; first compound 50 µM),relative viability (4EGI-1 + Bortezomib; first compound 0.5 µM),relative viability (4EGI-1 + Bortezomib; first compound 1.581 µM),relative viability (4EGI-1 + Bortezomib; first compound 5 µM),relative viability (4EGI-1 + Bortezomib; first compound 15.81 µM),relative viability (4EGI-1 + Bortezomib; first compound 50 µM),relative viability (4EGI-1 + AZD7762; first compound 0.5 µM),relative viability (4EGI-1 + AZD7762; first compound 1.581 µM),relative viability (4EGI-1 + AZD7762; first compound 5 µM),relative viability (4EGI-1 + AZD7762; first compound 15.81 µM),relative viability (4EGI-1 + AZD7762; first compound 50 µM)
NCI-H1666,1.01,0.829,0.9,1.05,0.74,0.673,0.693,0.633,0.641,0.598,1.22,0.693,0.862,0.474,0.228,0.81,0.68,0.757,0.497,0.341
NCI-H1734,0.652,0.678,0.745,0.658,0.576,0.395,0.281,0.373,0.38,0.246,0.948,0.773,0.922,0.712,0.292,0.596,0.455,0.573,0.32,0.178
NCI-H1755,0.981,0.949,0.954,1.04,0.896,0.439,0.424,0.425,0.435,0.406,1.06,0.94,0.918,0.802,0.441,0.441,0.411,0.457,0.344,0.252
NCI-H1915,1.08,1.09,1.07,1.05,0.962,0.562,0.369,0.517,0.477,0.404,1,0.693,1.09,1.01,0.687,0.775,0.546,0.69,0.726,0.301
NCI-H1975,0.578,0.649,0.656,0.727,0.372,0.725,0.565,0.527,0.665,0.41,0.475,0.393,0.399,0.36,0.348,0.837,0.539,0.717,0.67,0.557
NCI-H1993,0.707,–,0.78,0.561,0.656,0.727,0.624,0.584,0.52,0.366,1.19,0.899,0.988,0.689,0.516,0.904,0.689,0.937,0.504,0.356
NCI-H2085,0.966,0.917,1.01,0.852,0.728,0.518,0.462,0.453,0.474,0.339,1.14,1.04,1.16,0.964,0.517,1.1,1.02,0.969,0.736,0.655
NCI-H2087,1.18,1.05,1.21,1.35,0.808,0.281,0.243,0.244,0.163,0.16,1.04,0.782,0.882,0.726,0.335,1.42,1.48,1.34,1.06,0.391
